Reference: patent publication US6906006B1, “N-arly-substituted nitrogen-containing heterocycles, processes and novel intermediates for their preparation, and their use as herbicides and plant growth regulators” (Bayer Aktiengesellschaft, priority 1988, dated 2005)

Tests used:
[1] = test system: test plants; assay: Post-emergence test (Use Example B, formula (I) compounds); format: in vivo; conditions: sprayed in 2,000 l of water/ha, damage rated after three weeks, comparison substance 1-(2-chloro-4-trifluoromethylphenyl)-5-methyl-4-nitropyrazole
Method: • Solvents 5 parts by weight of acetone • Emulsifier: 1 part by weight of alkylaryl polyglycol ether
(§1) To produce a suitable preparation of active compound, 1 part by weight of active compound is mixed with the stated amount of solvent, the stated amount of emulsifier is added and the concentrate is diluted with water to the desired concentration.
Test plants which have a height of 5-15 cm are sprayed with the preparation of the active compound in such a way as to apply the particular amounts of active compound desired per unit area. The concentration of the spray liquor is so chosen that the particular amounts of active compound desired are applied in 2,000 l of water/ha. After three weeks, the degree of damage to the plants is rated in % damage in comparison to the development of the untreated control. The figures denote: • 0%=no action (like untreated control) • 100%=total destruction

[2] = test system: test plants; assay: Pre-emergence test (Use Example A, formula (I) compounds); format: in vivo; conditions: damage rated after three weeks, comparison substance 1-(2-chloro-4-trifluoromethylphenyl)-5-methyl-4-nitropyrazole
Method: • Solvent: 5 parts by weight of acetone • Emulsifier: 1 part by weight of alkylaryl polyglycol ether
as §1
Seeds of the test plants are sown in normal soil and, after 24 hours, watered with the preparation of active compound. It is expedient to keep constant the amount of water per unit area. The concentration of the active compound in the preparation is of no importance, only the amount of active compound applied per unit area being decisive. After three weeks, the degree of damage to the plants is rated in % damage in comparison to the development of the untreated control. The figures denote: • 0%=no action (like untreated control) • 100% total destruction

SMILES | effectiveness and crop plant selectivity compared with the prior art [1] | effectiveness and crop plant selectivity compared with the prior art [2]
Cc1c2c(nn1-c1cc(SC(C)C)c(C#N)cc1F)CCCC2 [Example 9, 4-(5-methyl-3,4-tetramethylene-1-pyrazolyl)-5-fluoro-2-isopropylthiobenzonitrile] | clearly superior effectiveness as well as crop plant selectivity | 
CCOCCOc1cc(-n2nc3c(c2C)CCCC3)c(F)cc1C#N [Example 10] | clearly superior effectiveness as well as crop plant selectivity | clearly superior to the prior art
